Results published in ChEMBL document CHEMBL4390682, “Purification, structural elucidation, antioxidant capacity and neuroprotective potential of the main polyphenolic compounds contained in Achyrocline satureioides (Lam) D.C. (Compositae)” (Bioorg Med Chem, 2019).
Activity calls are given as the source filed them. The calls are words filed in the database; no cut-off is given here.

Key:
[1] = organism: Rattus norvegicus; assay: Neuroprotective activity in Sprague-Dawley rat CGN cells assessed as protection against H2O2-induced cytotoxicity by measuring increase in cell viability at 5 to 100 uM pre-incubated for 24 hrs before H2O2 stimulation for 24 hrs by MTT assay; assay type: functional
[2] = GSH reactivity in pH 7.4 PBS assessed as GSH-adduct formation at 50 uM incubated for 10 mins in presence of HRP and H2O2 in presence of 40 uM GSH by HPLC-DAD and HPLC-MS/MS analysis relative to control; assay type: physicochemical; conditions: buffer, pH 7.4, 10 min
[3] = test system: Brain; assay: Antioxidant activity in Sprague-Dawley rat brain homogenates assessed as inhibition of lipoperoxidation incubated for 40 mins by fluorescence based assay; assay type: functional, tissue-based
[4] = Antioxidant activity in pH 7.4 PBS assessed as ABTS+ radical scavenger activity incubated under absence of light for 16 hrs; assay type: functional
[5] = Antioxidant activity in pH 7.4 PBS assessed as reactivity against GSH at 50 uM incubated for 10 mins in presence of HRP and H2O2 in presence of 40 uM GSH by HPLC-DAD and HPLC-MS/MS analysis relative to control; assay type: functional
[6] = Antioxidant activity in pH 7.4 PBS assessed as H2O2 oxidation at 50 uM incubated for 10 mins in presence of HRP and H2O2 by UV spectroscopy and HPLC analysis relative to control; assay type: functional
[7] = GSH reactivity in pH 7.4 PBS assessed as hydroxylated quercetin formation at 50 uM incubated for 10 mins in presence of HRP and H2O2 in presence of 40 uM GSH by HPLC-DAD and HPLC-MS/MS analysis relative to control; assay type: physicochemical; conditions: buffer, pH 7.4, 10 min

Structure (SMILES): O=c1c(O)c(-c2ccc(O)c(O)c2)oc2cc(O)cc(O)c12 [QUERCETIN]
- Activity [1]: Active
- Activity [2]: Active
- EC50 [3]: 5.7 µM
- EC50 [4]: 9.6 µM
- Activity [5]: Active
- Activity [6]: 90%
- Activity [7]: Active

Structure (SMILES): COc1c(-c2ccc(O)c(O)c2)oc2cc(O)cc(O)c2c1=O [3-O-METHYLQUERCETIN]
- Activity [1]: inactive
- EC50 [3]: 74 µM
- EC50 [4]: 45 µM
- Activity [5]: Active
- Activity [6]: 0%

Structure (SMILES): O=c1cc(-c2ccc(O)c(O)c2)oc2cc(O)cc(O)c12 [LUTEOLIN]
- Activity [1]: Active
- EC50 [3]: 79 µM
- EC50 [4]: 46 µM
- Activity [5]: Active
- Activity [6]: 25%

Structure (SMILES): O=c1c(O[C@@H]2O[C@H](CO)[C@@H](O)[C@H](O)[C@H]2O)c(-c2ccc(O)c(O)c2)oc2cc(O)cc(O)c12 [ISOQUERCETIN]
- Activity [1]: Active
- EC50 [3]: 94 µM
- EC50 [4]: 152 µM
- Activity [5]: Active
- Activity [6]: 15%
